According to ChEMBL document CHEMBL1130792, “Studies on an immunosuppressive macrolactam, ascomycin: synthesis of a C-33 hydroxyl derivative” (Bioorg Med Chem Lett, 1998):
Converted amounts (≈) assume the structure as drawn.

Legend:
Rattus norvegicus [1] = experiment: Compound was tested in vivo for immunosuppressive activity using rat popliteal lymph node (rPLN) hyperplasia assay; type: functional
[2] = Distribution coefficent (Log D) value at pH 7.4; type: physicochemical; conditions: read-out: LogD7.4
[3] = Distribution coefficient (Log D) value at pH 6.5; type: physicochemical; conditions: octanol/water, read-out: LogD6.5
Homo sapiens [4] = species on record: Homo sapiens; experiment: Compound was tested in vitro for inhibition of human mixed lymphocyte proliferation (HuMLR); type: functional
Homo sapiens [5] = species on record: Homo sapiens; experiment: Compound was tested in vitro for inhibitory activity against human FKBP; type: functional
[6] = Solubility at pH 7.4; type: physicochemical; conditions: buffer
[7] = Solubility at pH 6.5; type: physicochemical; conditions: buffer
Rattus norvegicus [8] = experiment: Compound was tested in vivo for immunosuppressive activity using rat popliteal lymph node (rPLN) hyperplasia assay at 3 mg/kg; type: functional
[9] = Compound was tested in vitro for inhibitory activity against human FK506 binding protein

logD [2]	logD [3]	IC50 (Homo sapiens [5])	solubility [6]	solubility ([7]; read-out: Solubility)	solubility [7]	IC50 [9]	Structure (SMILES)	ED50 (Rattus norvegicus [1])	IC50 (Homo sapiens [4])	inhibition in vivo at 3 mg/kg (Rattus norvegicus [8])
3.4	3.6	1.21 nM	0.455 mg/mL (≈ 563 µM)	0.464 mg/mL (≈ 574 µM)	–	–	CC[C@@H]1/C=C(\C)C[C@H](C)C[C@H](OC)[C@H]2O[C@@](O)(C(=O)C(=O)N3CCCC[C@H]3C(=O)O[C@H](/C(C)=C/[C@@H]3C[C@@H](O)[C@@H](O)[C@H](OC)C3)[C@H](C)[C@@H](O)CC1=O)[C@H](C)C[C@@H]2OC	0.72 mg/kg	0.17 nM	–
3.9	3.9	39.2 nM	0.245 mg/mL (≈ 303 µM)	0.294 mg/mL (≈ 364 µM)	–	–	CC[C@@H]1/C=C(\C)C[C@H](C)C[C@H](OC)[C@H]2O[C@@](O)(C(=O)C(=O)N3CCCC[C@H]3C(=O)O[C@H](/C(C)=C/[C@@H]3CC[C@@H](OC)[C@H](O)C3O)[C@H](C)[C@@H](O)CC1=O)[C@H](C)C[C@@H]2OC (stereo partly drawn)	–	0.72 nM	36%
4.22	3.98	2.06 nM	0.0042 mg/mL (≈ 5.3 µM)	–	0.0016 mg/mL (≈ 2.02 µM)	–	CC[C@@H]1/C=C(\C)C[C@H](C)C[C@H](OC)[C@H]2O[C@@](O)(C(=O)C(=O)N3CCCC[C@H]3C(=O)O[C@H](/C(C)=C/[C@@H]3CC[C@@H](O)[C@H](OC)C3)[C@H](C)[C@@H](O)CC1=O)[C@H](C)C[C@@H]2OC [ASCOMYCIN]	0.31 mg/kg	0.25 nM	–
4.38	4.36	–	0.0052 mg/mL (≈ 6.47 µM)	0.001 mg/mL (≈ 1.24 µM)	–	2.54 nM	C=CC[C@@H]1/C=C(\C)C[C@H](C)C[C@H](OC)[C@H]2O[C@@](O)(C(=O)C(=O)N3CCCC[C@H]3C(=O)O[C@H](/C(C)=C/[C@@H]3CC[C@@H](O)[C@H](OC)C3)[C@H](C)[C@@H](O)CC1=O)[C@H](C)C[C@@H]2OC [TACROLIMUS ANHYDROUS]	0.15 mg/kg	0.37 nM	–
